Laboratory results as given in patent US11648395B2, “Electrode assemblies for neuromodulation” (Cardionomic, Inc., priority 2018, dated 2023).

Tested on: normal, non-HF ovine model
Experiment: Correlation of right and left ventricle contractility (max dP/dt) after injection, heartbeat-by-heartbeat
Assay type: in vivo
Details: max(dP/dt) used as surrogate for contractility, after injection (calcium: 5 mL)
From the text: The correlation was a heartbeat-by-heartbeat analysis. Pressure measurements, taken by a Millar catheter comprising a MEMS pressure sensor, in units of max(dP/dt) was used as a surrogate for contractility. The first change, a dobutamine injection, provided a very high contractility increase greater than 500%. The average correlation between right ventricle contractility and left ventricle contractility was very good at 0.91, where 1.00 is a perfect correlation. Accordingly, if a subject is given a dobutamine injection, measuring changes to right ventricle contractility can provide accurate information about changes to left ventricle contractility. The first change was repeated three times. The second change, calcium injection at 5 mL, provided a contractility increase of about 20%. […] The average correlation between right ventricle contractility and left ventricle contractility using a Millar (MEMS) sensor on a catheter was very good at 0.91. The average correlation between right ventricle contractility and left ventricle contractility using a fluid-filled lumen of a Swan-Ganz catheter in communication with an external pressure sensor was also very good at 0.87. Accordingly, under certain circumstances such as measurement of an animal (normal, non-HF ovine model) model, if a subject is given a calcium injection, measuring changes to right ventricle contractility with a MEMS sensor or a fluid filled lumen can provide accurate information about changes to left ventricle contractility.

Compound | Contractility % Increase [%] | Contractility % Increase (listed as dobutamine injection) | Contractility % Increase (listed as calcium injection)
CC(CCc1ccc(O)cc1)NCCc1ccc(O)c(O)c1 (stereo not shown) [Dobutamine Injection, dobutamine] | >500 | greater than 500% | –
calcium [Calcium Injection] | ~20 | – | about 20%
